# Reference: paper PMC12514245, “Impaired migration and lung invasion of human melanoma by a novel small molecule targeting the transmembrane domain of death receptor p75^NTR” (EMBO Molecular Medicine, 2025)
# Values joined by “and” are separate entries in the source; they are usually repeats but may differ in a detail not shown here. Identical values can stand only once.
# Experiments:
# p75^NTR TMD = target: T1, p75^NTR TMD (Homo sapiens, UniProt P08138); assay: AraTM assay, wild-type p75NTR TMD (GFP/OD630); assay type: cell-based; conditions: structure-activity comparison
# T1 sequence (P08138 250-275 limits assumed): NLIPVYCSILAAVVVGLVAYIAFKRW
# AS19 E. coli = assay: Bacterial toxicity (OD630) in the AraTM assay; assay type: cell-based; conditions: compared with Div17E5
# A875 NT cells [1] = assay: Wound healing cell motility assay, A875 NT; assay type: cell-based, human; conditions: for Wound area (Fold), Mean / Wound area (Fold), individual replicates: 10uM
# Protocol: For wound healing assay, cells were grown until confluency and subjected to a wound across the cell mono-layer. Cells were then incubated with serum-free media either with DMSO or a small molecule (with or without 5 µM Q_VD_poH) and imaged at specific time-points. Cell migration is reflected as fold change in wound area over time.
# melanoma tumor = tested on: melanoma tumor; design: method as in Goh et al, 2018; conditions: ref Goh et al, 2018; cited from earlier work
# [2] = tested on: neurons and melanoma cells; design: method as in Goh et al, 2018; conditions: dependent on p75NTR and JNK activity; ref Goh et al, 2018; cited from earlier work
# A875 NT cells [3] = assay: Filopodia per cell (phalloidin staining), A875 NT; assay type: cell-based, human
# Protocol: (§1) For assessment of actin filaments, A875 cells were plated on glass coverslips in 24-well plate at a confluency of 3 × 10^4 cells/well. One day after plating, the cells were treated with 1 μM or 5 μM Np75-4A22 and NGF (100 ng/ml) or PBS for 24 h. Cells were fixed in 4% paraformaldehyde, permeabilized in 0.1% Triton-X-100, stained with Phalloidin-iFluor 488 (Abcam) at 1:2000 dilution and DAPI for 1 h. Coverslips were mounted and visualized in a laser confocal microscope.
# [4] = tested on: fascin in Triton-insoluble fraction of A875 NT cells; assay: Detergent-insolubility assay of fascin, A875 NT; assay type: cell-based, human; conditions: NGF; insoluble/total fascin, n1-n3
# Protocol: A single cell suspension was obtained by trypsinization followed by centrifugation and detergent extraction with lysis buffer (with 0.5% Triton X-100). Then, immediately centrifuged at 8700 g for 3 min. The resulting pellets (containing the Triton X-100-resistant proteins) were suspended in lysis buffer without Triton X-100. In parallel, cells were centrifuged and then directly suspended in lysis buffer. The Triton X-100- resistant proteins and total cell lysates were analyzed by SDS–PAGE and Western blotting with anti-fascin antibody.
# WM115 cells = assay: Boyden chamber chemotaxis assay, WM115; assay type: cell-based, human; conditions: 100 ng/ml NGF
# Protocol: For Boyden chamber assay, Corning® BioCoat™ Matrigel® Invasion Chambers 8.0 µm PET Membrane were used (cat. no. 354480). A875 NT or WM115 cells were serum-starved for 16 h and then seeded at 60,000 cells per well in serum-free media under different conditions, including DMSO (vehicle) or small molecules Div17E5 or Np75-4A22 at different concentrations to the top chamber of the Matrigel-coated trans-well chamber. The pan-caspase inhibitor Q_VD_poH (at 5 µM) was also introduced in the top chamber in some experiments. Two different chemoattractants, NGF (at 50 ng/ml or 100 ng/ml as indicated) or 10% FBS were added to the bottom chamber. Assays were carried out for 8 h after which filters were fixed in 4% PFA and stained with DAPI. Cells that had remained on the top of the filter were gently scrapped away with a cotton tip. The filter lower side was imaged on an inverted fluorescence microscope and counted using ImageJ software (NIH).
# A875 shp75 cells [5] = assay: Filopodia per cell (phalloidin staining), A875 shp75; assay type: cell-based, human; conditions: for filopodia per cell (well mean): A875 shp75 cells, wells 1-4
# Protocol: as §1
# A875 shp75 cells [6] = assay: Boyden chamber chemotaxis assay, A875 shp75; assay type: cell-based, human; conditions: NGF as chemoattractant
# [7] = target: T2, fascin/p75^NTR interaction (Homo sapiens, UniProt P08138); assay: Co-immunoprecipitation of fascin with p75NTR in A875 cells; assay type: cell-based; conditions: NGF, experiments 1-3
# T2 construct: endogenous in cells; host or cells: A875-NT (and A875 sh-p75NTR knock-down control)
# T2 sequence (P08138 29-427): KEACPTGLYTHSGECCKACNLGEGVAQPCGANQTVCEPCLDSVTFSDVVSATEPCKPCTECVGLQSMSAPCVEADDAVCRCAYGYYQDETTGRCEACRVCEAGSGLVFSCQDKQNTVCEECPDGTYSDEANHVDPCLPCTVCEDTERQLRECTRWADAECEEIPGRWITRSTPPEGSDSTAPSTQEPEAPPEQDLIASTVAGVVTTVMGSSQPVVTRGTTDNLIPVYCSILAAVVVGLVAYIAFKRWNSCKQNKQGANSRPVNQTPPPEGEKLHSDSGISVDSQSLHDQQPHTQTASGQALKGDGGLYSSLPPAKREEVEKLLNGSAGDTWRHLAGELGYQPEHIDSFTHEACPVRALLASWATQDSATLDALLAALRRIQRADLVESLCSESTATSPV
# Protocol: For co-immunoprecipitation analysis of p75^NTR/fascin interactions, A875 sh-p75^NTR and A875-NT cells were plated in a 10 cm tissue culture dish at a confluency of 3 × 10^6 cells/dish in normal growth media. Twenty-four hours after plating, the cells were treated with 1 μM 4A22 and NGF (100 ng/ml) for 12 h prior to harvest and lysis in lysis buffer (50 mM Tris/HCl pH 7.5, 1 mM EDTA, 270 mM Sucrose, 1% (v/v) Triton X-100, 0.1% (v/v) 2-mercaptoethanol and 60 mM n-Octyl-β-D glucopyranoside) containing protease inhibitor cocktail. The cellular extracts were then centrifuged at 4 °C top speed on a benchtop centrifuge for 1 min and the supernatant was collected. For immunoprecipitation, A875 cell extracts were incubated for 16 h at 4 °C on a rotating wheel with 0.8 μg of anti-p75^NTR antibody (ANT-007, Alomone) and then incubated with Sepharose protein-G beads (GE Healthcare). The beads were collected by brief centrifugation (2 min, 2500 rpm, 4 °C), washed three times with 1 ml of Wash Buffer (with composition same as the lysis buffer). After the last wash, pelleted beads were aspirated off the wash buffer followed by addition of Laemmli sample buffer and analysis by SDS–PAGE followed by Western Blot using anti-fascin antibody (MA5-11483, Invitrogen).
molecule,measurement,setting,value
COc1ccc(-c2cncc(Nc3ccc([N+](=O)[O-])cc3)n2)cc1 [MS_18],activity in the AraTM assay,p75^NTR TMD,"MS_18 more potent than Np75-3A01, -3A02"
same,"bacterial toxicity, as assessed by OD630",AS19 E. coli,somewhat lower bacterial toxicity
same,"wound healing assay, comparison of Div17E5, MS_18 and MS_63",A875 NT cells [1]; 10 µM,lower potency
same,"Wound area (Fold), Mean",A875 NT cells [1]; 0 hours,1 Fold
same,"Wound area (Fold), individual replicates",A875 NT cells [1]; 0 hours,1.000 Fold
same,"Wound area (Fold), Mean",A875 NT cells [1]; 3 hours,0.941 Fold
same,"Wound area (Fold), individual replicates",A875 NT cells [1]; 3 hours,0.922 Fold and 0.959 Fold
same,"Wound area (Fold), Mean",A875 NT cells [1]; 6 hours,0.91 Fold
same,"Wound area (Fold), individual replicates",A875 NT cells [1]; 6 hours,0.89 Fold and 0.929 Fold
same,"Wound area (Fold), Mean",A875 NT cells [1]; 9 hours,0.867 Fold
same,"Wound area (Fold), individual replicates",A875 NT cells [1]; 9 hours,0.834 Fold and 0.901 Fold
same,"Wound area (Fold), Mean",A875 NT cells [1]; 12 hours,0.851 Fold
same,"Wound area (Fold), individual replicates",A875 NT cells [1]; 12 hours,0.803 Fold and 0.899 Fold
same,"Wound area (Fold), Mean",A875 NT cells [1]; 15 hours,0.791 Fold
same,"Wound area (Fold), individual replicates",A875 NT cells [1]; 15 hours,0.728 Fold and 0.855 Fold
same,"Wound area (Fold), Mean",A875 NT cells [1]; 18 hours,0.817 Fold
same,"Wound area (Fold), individual replicates",A875 NT cells [1]; 18 hours,0.79 Fold and 0.845 Fold
same,"Wound area (Fold), Mean",A875 NT cells [1]; 21 hours,0.775 Fold
same,"Wound area (Fold), individual replicates",A875 NT cells [1]; 21 hours,0.722 Fold and 0.827 Fold
same,"Wound area (Fold), Mean",A875 NT cells [1]; 24 hours,0.737 Fold
same,"Wound area (Fold), individual replicates",A875 NT cells [1]; 24 hours,0.692 Fold and 0.783 Fold
O=C(/C=C/c1cccnc1)c1ccccc1O [NSC49652],melanoma tumor growth,melanoma tumor,inhibited melanoma tumor growth
same,apoptotic cell death,[2],triggered apoptotic cell death
"NGF: nerve growth factor, neurotrophin ligand of p75NTR, used as chemoattractant","Filopodia per cell, mean of experiment","A875 NT cells [3]; 100 ng/ml NGF alone, A875 NT, EXP1-EXP3",50.0863 and 44.7441 and 46.2718
same,"Filopodia per cell, mean of three experiments","A875 NT cells [3]; 100 ng/ml NGF alone, A875 NT, mean of EXP1-3",47.0341
same,"Filopodia per cell, mean of well","A875 NT cells [3]; 100 ng/ml NGF alone, A875 NT, well mean",36.2857 and 52.7857 and 51.5714 and 47.2222 and 38.6667 and 55.1429 and 44.0556
same,"Filopodia per cell, mean of the well","A875 NT cells [3]; 100 ng/ml NGF, EXP1 NT, well mean",59.8571 and 51.381 and 46.8571 and 42.25
same,Fold change (compared to untreated cells),[4],3.421 and 2.292 and 2.425
same,"values normalized to vehicle, mean (Figure 6E)",WM115 cells; mean of EXP1-3,1.5693
same,values normalized to vehicle (Figure 6E),WM115 cells; single experiments EXP1-3,1.456 and 1.588 and 1.664
same,filopodia per cell (mean of 3 experiments),"A875 shp75 cells [5]; A875 shp75, 100ng/ml NGF",33.6544
same,filopodia per cell (mean of one experiment),"A875 shp75 cells [5]; A875 shp75, 100ng/ml NGF, EXP1-EXP3",32.2411 and 36.1597 and 32.5625
same,filopodia per cell (well mean),"A875 shp75 cells [5]; EXP1, 100 ng/ml NGF",25.2143 and 35.5 and 37.1667 and 31.0833
same,filopodia per cell (well mean),"A875 shp75 cells [5]; EXP2, 100 ng/ml NGF",37 and 30.3889 and 32.6667 and 44.5833
same,"Fold change (invading cells), n1-n4",A875 shp75 cells [6],0.89 Fold and 1.06 Fold and 1.42 Fold and 1.05 Fold
same,"Fold change (invading cells), Mean",A875 shp75 cells [6]; N=4,1.110 Fold
same,FASCIN/P75,[7],0.1943 and 0.2161 and 0.2851
same,FASCIN/P75 Fold change,[7]; relative to UT,1.97 and 2.116 and 1.36
